Values quoted from earlier work in US8263564B2, “Iron-carbohydrate complex compounds” (Vifor (International) AG, priority 2007, dated 2012).

Tested on: mice
Conditions: intravenously on mice; Berenbaum et al. 1960 cited in Geisser et al. 1992

Structure (SMILES): O=S(=O)([O-])[O-].[Fe+2] [Fe(II) sulfate]
- LD50: 11 mg of Fe/kg of body weight
